Here are results for 13 compounds from US20260226084A1, “DUAL RAF AND TUBULIN INHIBITORS AND METHODS OF USE THEREOF” (Deciphera Pharmaceuticals, LLC, priority 2023, published 2026).

The subject of assay [1] is HPAF-II cells. As to the kind of experiment: HPAF-II Cell Proliferation Assay. The format is cell-based. The following applies: Homo sapiens. The method, boiled down:
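Viability read-out was resazurin fluorescence (540 nm excitation, 600 nm emission), developed 18–24 h after a 115–120 h compound exposure of 750 HPAF-II cells per well in MEM/10% FBS at 37 °C. Compound was tested as a serial dilution in triplicate, and IC50 values were calculated.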

In assay [2] the target is T1, B-Raf kinase (SEQ ID NO: 1) (Homo sapiens, UniProt P15056).
T1 construct: GST (N); purchased Sigma
As to the kind of experiment: Biochemical Assay for B-Raf (coupled pyruvate kinase/lactate dehydrogenase assay).

Assay [3] deals with T2, C-Raf kinase (SEQ ID NO: 2) (Homo sapiens, UniProt P04049, Y340D/Y341D).
T2 construct: C-Raf residues 306-end; Y340D, Y341D with; GST (N); purchased Sigma
The assay is described as follows: Biochemical Assay for C-Raf (coupled pyruvate kinase/lactate dehydrogenase assay).

Assay [4] deals with MiaPaca-2 cells. As to the kind of experiment: MiaPaca-2 Cell Proliferation Assay. The format is cell-based. The settings on record: Homo sapiens. The method, boiled down:
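Viability was read as resazurin fluorescence (540 nm excitation, 600 nm emission) after 5–6 h with dye. Compounds were tested as serial dilutions in triplicate, with IC50 derived from the dose–response.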

Assay [5] addresses T3, Porcine Brain Tubulin (Sus scrofa, UniProt P02550+P02554).
T3 construct: Porcine Brain Tubulin (T240); purchased Cytoskeleton, Inc T240; BK011P; host or cells: porcine brain (tissue-purified)
The assay is described as follows: Biochemical Tubulin Polymerization Assay.

Assay [6] has as its system Pa16c cells. The assay is described as follows: Pa16c Cell Proliferation Assay. It is filed as cell-based. The settings on record: Table 2, read-out: Inhibition of cell proliferation in Pa16c (IC50 class). The method, boiled down: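 Proliferation read-out: resazurin fluorescence (540 nm excitation, 600 nm emission) after an extra 18 to 24 h. Before that, compound dilution series (triplicate) stayed on 750 Pa16c cells/well in complete DMEM/10% FBS for 67 to 72 h at 37° C. IC50 values derived from the curves.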

Assay [7] has as its system HCT-116 cells. The assay is described as follows: HCT-116 Cell Proliferation Assay. The format is cell-based. The following applies: Homo sapiens. The method, boiled down: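 IC50 values come from resazurin fluorescence (540 nm excitation, 600 nm emission) added for 4 to 5 h after compound treatment. Treatment: serially diluted compound in triplicate on 375 HCT-116 cells per well in complete McCoy's 5A/10% FBS, 67 to 72 hours, 37 °C, 5% CO2.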

Assay [8] concerns tubulin polymerization in HCT-116 cells. As to the kind of experiment: Cellular Tubulin Polymerization Assay. The format is cell-based. The following applies: Homo sapiens, Table 5, read-out: Tubulin Cellular. As for the experimental part:
HCT-116 cells (catalog #CCL-247) are obtained from the American Type Culture Collect (ATCC, Manassas, VA). Briefly, cells are grown in McCoy's 5A supplemented with 10% characterized fetal bovine serum (Invitrogen, Carlsbad, CA) and 1% Penicillin/Streptomycin/L-Glutamine at 37° C., 5% CO2, and 95% humidity. Cells are expanded until reaching 70-95% confluency at which point they are subcultured or harvested for assay use. 450000 cells are added per well in 1500 μL complete growth medium in a tissue culture treated, 12-well plate. Plates are incubated for 18 to 24 h at 37° C., 5% CO2, and 95% humidity. At the end of the incubation, 2000 μL of base culture media is added to each well, followed by a serial dilution of compound. Plates are incubated for an additional 1 h at 37° C., 5% CO2, and 95% humidity. Lysates are generated by the addition of 100 μL Lysis and Microtubule Stabilization Buffer 1 (LMS01, Cytoskeleton Inc, Denver, CO) supplemented with GTP (BST06, Cytoskeleton Inc), ATP (BSA04, Cytoskeleton Inc), and Protease Inhibitor Cocktail Stock (PIC02, Cytoskeleton Inc). Cells are scraped off wells using a rubber cell scraper and collected in a clean 96-well plate. Lysates are centrifuged at 1000×g, 37° C. for 10 min and supernatant fraction is placed into an additional 96-well plate. The remaining pellet fraction is reconstituted in 100 μL LMS01 buffer and sonicated for 10 min. Pellet and Supernatant fractions are probed for α-tubulin via western blot analysis on the Jess System or equivalent (Bio-techne, Minneapolis, MN). Data is analyzed using Prism software (Graphpad, San Diego, CA) to calculate IC50values.

Setting [9] is: HPAF-II, HPAF-II cells, Table 2, read-out: Inhibition of cell proliferation in HPAF-II (IC50 class).
Setting [10] is: HPAF-II, Table 3, read-out: HPAF-II (IC50 class).
Setting [11] is: 1 mM ATP, read-out: BRAF (inhibition of biochemical activity, IC50).
The mark [12] stands for this setting: Table 3, read-out: BRAF (IC50 class).
Where [13] appears, read: 1 mM ATP, read-out: CRAF (inhibition of biochemical activity, IC50).
Where [14] appears, read: Table 3, read-out: CRAF (IC50 class).
The mark [15] stands for this setting: MIA PaCa-2, MiaPaca-2 cells, Table 2, read-out: Inhibition of cell proliferation in MiaPaca-2 (IC50 class).
Setting [16] is: MIA PaCa-2, Table 3, read-out: MiaPaca-2 (IC50 class).
Where [17] appears, read: Table 3, Tubulin Biochemical assay, read-out: Tubulin Biochem (IC50 class).
The mark [18] stands for this setting: HCT-116, HCT-116 cells, Table 2, read-out: Inhibition of cell proliferation in HCT-116 (IC50 class).
[19] abbreviates: HCT-116, Table 3, read-out: HCT-116 (IC50 class).
Setting [20] is: HPAF-II, Table 4, HPAF-II mutant KRAS pancreatic cancer cell line, read-out: HPAF-II IC50.
Where [21] appears, read: Table 4, representative compounds from PCT/US2022/081242, read-out: BRAF IC50.
The mark [22] stands for this setting: Table 4, representative compounds from PCT/US2022/081242, read-out: CRAF IC50.
Where [23] appears, read: MIA PaCa-2, Table 4, MiaPaca-2 mutant KRAS pancreatic cancer cell line, read-out: MiaPaca-2 IC50.
Setting [24] is: Table 4, representative compounds from PCT/US2022/081242, read-out: Tubulin Biochem IC50.
The mark [25] stands for this setting: HCT-116, Table 4, HCT-116 mutant KRAS colorectal cancer cell line, read-out: HCT-116 IC50.
Setting [26] is: Table 5, HPAF-II mutant KRAS pancreatic cancer cell line, read-out: HPAF-II.
[27] abbreviates: MIA PaCa-2, Table 5, MiaPaca-2 mutant KRAS pancreatic cancer cell line, read-out: MiaPaca-2.
[28] abbreviates: Table 5, HCT-116 mutant KRAS colorectal cancer cell line, read-out: HCT-116.

Where two headings read alike, the source gives them in different places. Where only a bound is given, the exact number is not on record here.

T2 sequence (P04049 307-648 Y340D/Y341D): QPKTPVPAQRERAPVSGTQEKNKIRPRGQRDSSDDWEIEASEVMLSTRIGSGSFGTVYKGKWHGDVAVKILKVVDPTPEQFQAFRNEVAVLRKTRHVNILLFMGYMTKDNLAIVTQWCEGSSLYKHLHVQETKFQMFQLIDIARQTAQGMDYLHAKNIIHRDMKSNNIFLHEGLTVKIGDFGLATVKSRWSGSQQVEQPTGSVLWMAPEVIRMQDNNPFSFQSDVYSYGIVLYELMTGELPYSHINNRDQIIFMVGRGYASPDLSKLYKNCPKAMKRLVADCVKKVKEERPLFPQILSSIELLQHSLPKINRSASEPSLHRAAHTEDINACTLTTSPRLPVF
T1 sequence (P15056 416-766): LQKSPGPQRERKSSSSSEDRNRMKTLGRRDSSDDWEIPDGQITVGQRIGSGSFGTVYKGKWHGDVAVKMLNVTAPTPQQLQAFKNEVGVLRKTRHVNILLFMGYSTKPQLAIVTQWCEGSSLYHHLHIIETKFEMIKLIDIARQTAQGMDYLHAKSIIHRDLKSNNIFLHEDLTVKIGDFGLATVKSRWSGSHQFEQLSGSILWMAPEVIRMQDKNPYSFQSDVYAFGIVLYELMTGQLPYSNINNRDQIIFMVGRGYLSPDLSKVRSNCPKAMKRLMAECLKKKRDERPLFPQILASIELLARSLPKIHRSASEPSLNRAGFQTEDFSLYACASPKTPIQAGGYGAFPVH
T3 sequence (P02550 whole entry): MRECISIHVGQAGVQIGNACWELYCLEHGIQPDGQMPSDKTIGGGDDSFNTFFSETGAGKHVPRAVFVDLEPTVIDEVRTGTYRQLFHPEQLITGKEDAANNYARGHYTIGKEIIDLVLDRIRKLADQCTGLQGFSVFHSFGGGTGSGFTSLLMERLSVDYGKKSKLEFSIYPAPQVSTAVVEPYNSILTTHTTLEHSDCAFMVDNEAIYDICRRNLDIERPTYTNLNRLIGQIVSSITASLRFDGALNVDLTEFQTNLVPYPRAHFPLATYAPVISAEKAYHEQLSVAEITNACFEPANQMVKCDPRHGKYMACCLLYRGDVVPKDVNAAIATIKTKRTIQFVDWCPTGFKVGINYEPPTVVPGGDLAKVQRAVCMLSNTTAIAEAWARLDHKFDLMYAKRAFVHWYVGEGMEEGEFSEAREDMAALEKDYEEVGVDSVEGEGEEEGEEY
T3 sequence (P02554 whole entry): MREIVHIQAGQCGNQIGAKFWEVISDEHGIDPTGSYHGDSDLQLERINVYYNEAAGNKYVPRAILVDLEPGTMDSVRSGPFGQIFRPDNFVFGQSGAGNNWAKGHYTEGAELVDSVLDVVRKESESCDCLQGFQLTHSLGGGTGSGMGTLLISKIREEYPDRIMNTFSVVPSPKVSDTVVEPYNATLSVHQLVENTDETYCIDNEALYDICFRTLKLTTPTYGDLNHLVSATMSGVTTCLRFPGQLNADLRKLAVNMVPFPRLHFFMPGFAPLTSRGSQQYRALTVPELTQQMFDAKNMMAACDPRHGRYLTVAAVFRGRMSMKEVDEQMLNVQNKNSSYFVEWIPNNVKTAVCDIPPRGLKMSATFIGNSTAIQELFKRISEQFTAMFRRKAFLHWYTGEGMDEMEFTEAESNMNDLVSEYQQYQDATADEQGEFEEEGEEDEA

With `Cc1ccc(NC(=O)c2cc(C(F)(F)F)cnn2)cc1-c1cc(N[C@H](C)CO)nc(-c2ccnc(NC(=O)C3CC3)c2)c1` [Example 45], the IC50 in assay [1] (setting [9]), in assay [1] (setting [10]), in assay [2] (setting [11]), in assay [2] (setting [12]), in assay [3] (setting [13]) and in assay [3] (setting [14]) was less than 100 nM in each case. Besides, the IC50 in assay [4] (setting [15]) is 100 to 500 nM; in assay [4] (setting [16]), 100 to 500 nM; in assay [5] (setting [17]) it was 3000 to 20000 nM; in assay [6], 100 to 500 nM; in assay [7] (setting [18]), less than 100 nM; in assay [7] (setting [19]), less than 100 nM.

For the compound `Cc1ccc(NC(=O)c2cc(C(F)(F)F)cnn2)cc1-c1cc(N[C@H](C)CO)nc(-c2cn[nH]c2)c1` [Example 119], the IC50 in assay [1] (setting [9]), in assay [1] (setting [10]), in assay [2] (setting [11]), in assay [2] (setting [12]), in assay [3] (setting [13]) and in assay [3] (setting [14]) was less than 100 nM in each case. Besides, the IC50 in assay [4] (setting [15]) was less than 100 nM; in assay [4] (setting [16]), less than 100 nM; in assay [5] (setting [17]) it was less than 3000 nM; in assay [6], less than 100 nM; in assay [7] (setting [18]), less than 100 nM; in assay [7] (setting [19]), less than 100 nM.

For `Cc1ccc(NC(=O)c2ccnc(C3CC3)c2)cc1-c1ccnc(-c2ccnc(NC(=O)C3CC3)c2)c1` [reference compound], the IC50 in assay [1] (setting [20]) was 1000 to 10000 nM; in assay [2] (setting [21]) it was less than 100 nM; in assay [3] (setting [22]), less than 100 nM; in assay [4] (setting [23]) it was 1000 to 10000 nM; in assay [5] (setting [24]) it was more than 100000 nM; in assay [7] (setting [25]), 500 to 1000 nM.

For the compound `Cc1ccc(NC(=O)c2ccnc(C(F)(F)F)c2)cc1-c1cc(OCCO)nc(N2CCOCC2)c1` [Naporafenib], the IC50 in assay [8] is 1000 to 10000 nM.

As for `Cc1ccc(NC(=O)c2ccnc(C(C)(C)F)c2)cc1-c1ccnc(-c2ccnc(NC(=O)C3CC3)c2)c1` [reference compound], the IC50 was 500 to 1000 nM in assay [1] (setting [20]); less than 100 nM in assay [2] (setting [21]); less than 100 nM in assay [3] (setting [22]); 1000 to 10000 nM in assay [4] (setting [23]); more than 100000 nM in assay [5] (setting [24]); 100 to 500 nM in assay [7] (setting [25]).

In the case of `Cc1ccc(NC(=O)c2cncc(C(F)(F)F)c2)cc1-c1cncc(-c2cc(NC(=O)C3CC3)ncn2)c1` [Example 66], the IC50 in assay [1] (setting [9]), in assay [1] (setting [10]), in assay [2] (setting [11]), in assay [2] (setting [12]), in assay [3] (setting [13]) and in assay [3] (setting [14]) was less than 100 nM throughout. Also, the IC50 in assay [4] (setting [15]) was 100 to 500 nM; in assay [4] (setting [16]) it was 100 to 500 nM; in assay [5] (setting [17]) it was more than 100000 nM; in assay [6] it was 500 to 1000 nM; in assay [7] (setting [18]), less than 100 nM; in assay [7] (setting [19]) it was less than 100 nM.

Take `Cc1ccc(NC(=O)c2cc(C(C)(C)F)cnn2)cc1-c1ccnc(-c2ccnc(NC(=O)C3CC3)c2)c1` [Example 59]: the IC50 in assay [1] (setting [9]) is 100 to 500 nM; in assay [1] (setting [10]), 100 to 500 nM; in assay [2] (setting [11]) it was less than 100 nM; in assay [2] (setting [12]) it was less than 100 nM; in assay [3] (setting [13]), less than 100 nM; in assay [3] (setting [14]) it was less than 100 nM. Also, the IC50 was 100 to 500 nM in assay [4] (setting [15]); 100 to 500 nM in assay [4] (setting [16]); less than 3000 nM in assay [5] (setting [17]); 100 to 500 nM in assay [6]; less than 100 nM in assay [7] (setting [18]); less than 100 nM in assay [7] (setting [19]).

For the compound `CC(C)(C)c1nc(-c2cccc(NS(=O)(=O)c3c(F)cccc3F)c2F)c(-c2ccnc(N)n2)s1` [Dabrafenib, dabrafenib], the IC50 in assay [8] lay in the range of 1000 to 10000 nM.

For the compound `Cc1ccc(NC(=O)N2CC[C@@H](CC(F)(F)F)C2)cc1-c1cc(N[C@H](C)CO)nc(N2CCOCC2)c1` [Exarafenib, reference compound], the IC50 in assay [1] (setting [26]) was in the range of 1000 to 10000 nM; in assay [4] (setting [27]), 1000 to 10000 nM; in assay [8], 1000 to 10000 nM; in assay [7] (setting [28]), 500 to 1000 nM.

For the compound `Cc1ccc(NC(=O)c2ccnc(C(C)C)c2)cc1-c1ccnc(-c2ccnc(NC(=O)C3CC3)c2)c1` [reference compound], the IC50 is 100 to 500 nM in assay [1] (setting [20]); less than 100 nM in assay [2] (setting [21]); less than 100 nM in assay [3] (setting [22]); more than 100000 nM in assay [5] (setting [24]); 1000 to 10000 nM in assay [7] (setting [25]).

In the case of `CCCS(=O)(=O)Nc1ccc(F)c(C(=O)c2c[nH]c3ncc(-c4ccc(Cl)cc4)cc23)c1F` [Vemurafenib, vemurafenib], the IC50 in assay [8] is 1000 to 10000 nM.

Consider `C[C@@H](NC(=O)c1ncnc(N)c1Cl)c1ncc(C(=O)Nc2cc(C(F)(F)F)c(Cl)cn2)s1` [Tovorafenib, reference compound], for which the IC50 in assay [1] (setting [26]), in assay [4] (setting [27]), in assay [8] and in assay [7] (setting [28]) was 1000 to 10000 nM each time.

For the compound `Cc1ccc2c(Nc3cccc(Cl)c3F)nccc2c1NC(=O)c1csc2c(N)ncnc12` [Belvarafenib, reference compound], the IC50 in assay [2] (Table 5, previously disclosed BRAF/CRAF inhibitors, read-out: BRAF) is less than 100 nM; in assay [3] (Table 5, previously disclosed BRAF/CRAF inhibitors, read-out: CRAF), less than 100 nM; in assay [8] it was 1000 to 10000 nM; in assay [5] (Table 5, previously disclosed BRAF/CRAF inhibitors, read-out: Tubulin Biochem) it was more than 100000 nM.
